Columns and labels:
[1] = system: rats with diabetic nephropathy; conditions: rats with diabetic nephropathy (Forbes et al.); cited from earlier work
Human LDL [2] = assay: Cu++-mediated oxidation of LDL, TBARS (Example 9); conditions: 5 μM CuCl2, 10-250 μM compound, 5 hours, 37° C.
Method: The ability of the LR compounds to inhibit lipid peroxidation was tested using Cu^++-mediated lipid oxidation, a common in vitro model for studies on lipoxidative modifications of proteins. The effects of the LR compounds on lipid peroxidation were studied using Cu^++-mediated oxidation of LDL. Human LDL (50 μg of protein/mL) was incubated at 37° C. in chelex-treated PBS buffer alone or in the presence of 5 μM CuCl2 or 5 μM CuCl2 plus various concentrations of the inhibitor compounds (10-250 μM). After 5 hours of incubation, the amount of thiobarbituric acid reactive substances (expressed as malondialdehyde (MDA) equivalents) generated in the reaction mixture was calculated according to methods described by Dillon et al., Life Sci. #72:1583-1594, 2003. Briefly, aliquots from each sample were precipitated with 20% trichloroacetic acid, centrifuged and an equal volume of 1% thiobarbituric acid was added to the supernatant. The samples then were heated to 95° C. for 10 minutes, and upon cooling, the absorbance was read at 532 nm. Hydrolyzed tetraethoxypropane was used as a standard for the MDA equivalent calculation.

Human LDL [3] = assay: Cu++-mediated LDL oxidation, TBARS (Example 16); conditions: 250 μM compound, followed for 5 hours; control lag phase about 2 hours
Method: Human LDL was isolated from plasma of healthy donors by single vertical spin centrifugation (see Chung et al., Methods Enzymol. 128:181-209, 1986) and used within 24-48 hours of preparation. LDL (50 μg/mL) was incubated at 37° C. in 50 mM chelex-treated phosphate buffer, pH 7.4, alone or in the presence of 5 μM CuCl2 or 5 μM CuCl2 plus various concentrations of the LR compounds. After 5 hours of incubation, aliquots from each reaction mixture were removed for measurement of thiobarbituric acid-reacting substances (TBARS) as described in Satoh, Clin. Chim. Acta 90:37-43, 1978. Briefly, 250 μL of 20% trichloroacetic acid was added to 500 μL of sample aliquot, followed by 750 μL of 1% […]. The samples then were vortexed and incubated in a boiling water bath for 10 minutes. Upon cooling, the samples were centrifuged for 5 minutes at 5000 rpm. Absorbance of the supernatant was taken at 532 nm, and expressed as MDA equivalents using 1,1,3,3-tetramethoxypropane as standards. For fatty acid oxidation studies, linoleic acid (5#mM) was incubated alone or in the presence of 1 mM LR compound in […] phosphate buffer, pH 7.4, for 7 days at 37° C. Aliquots from each reaction mixture were withdrawn periodically for measurement of TBARS as described above.
Results are shown in FIG. 23A, where values are provided as means±SD of two independent experiments (n=4 for each treatment). In separate experiments, the time course for the oxidative modification fo LDL by Cu^++ in the presence of 250 μM compound was followed for 5 hours and aliquots for each time interval were assayed for TBARS. Values in FIG. 23B are means±SD of two independent experiments (n=4 per treatment).

[4] = system: diabetic and hyperlipidemic rats; conditions: diabetic and hyperlipidemic rats (Degenhardt et al.; Alderson et al.); cited from earlier work
[5] = Inhibition of copper-catalyzed oxidation of ascorbic acid (Cu2+ chelating activity); conditions: 500 nmol/L CuCl2, 500 μmol/L ascorbic acid, phosphate buffer pH 7.4, 60 minutes; read-out: IC50, concentration that inhibited the rate of AA oxidation by 50%
Method: In vitro measurement of the kinetics of inhibition of copper-catalyzed oxidation of ascorbic acid was performed according to the methods of Price et al., J. Biol. Chem. 276:48967-48972, 2001. Briefly, CuCl2 and various concentrations of inhibitor compounds were pre-incubated in chelex-treated 20 mmol/L phosphate buffer, pH 7.4, for 5 minutes. Ascorbic acid then was added (50 μL of 10 mmol/L in water) to initiate the reaction (1 mL total reaction volume). The final concentrations of CuCl2 and ascorbic acid in the reaction were 500 nmol/L and 500 μmol/L, respectively. Aliquots (135 μL) were removed at 0 and 60 minutes and transferred to autoinjector vials containing 15 μL of 10 mmol/l DTPA. Samples were analyzed by reversed phase HPLC on an XTerra™ RP18 column (250 mm×4.6 mm, 5 μm) with an XTerra™ RP18 5 μm guard column using a Waters® 2690 Separator Module equipped with auto-injector and Millenium® 32 software. Solvents and gradient were all used as described in Dillon et al., Life Sci. 72:1583-1594, 2003. The absorbance of ascorbic acid was measured at 244 nm and the peak area was obtained to estimate the percent of ascorbic acid remaining versus time. For each inhibitor compound, the concentration that inhibited the rate of AA oxidation by 50% (IC50), was calculated with respect to the control using Prism™ software.

[6] = Superoxide production, methylglyoxal with N-α-acetyl-lysine, WST-1 assay
Method: The superoxide radical scavenging activity of the compounds was evaluated using the WST-1 method described in Ukeda et al., Anal. Sci. 18:1151-1154, 2002. Briefly, methylglyoxal, was incubated with or without N-α-acetyl-lysine in 0.05 M chelex-treated sodium phosphate buffer, pH 7.4, in the presence of various concentrations of the inhibitor compounds. The production of superoxide was monitored spectrophotometrically at 438 nm, and compared with superoxide dismutase and Tiron, two known superoxide radical scavengers.

| Structure (SMILES) | increase in CML-AGE and nitrotyrosine staining [1] | inhibition of Cu++-mediated LDL oxidation (lipid peroxidation) (Human LDL [2]) | inhibition of Cu++-mediated LDL oxidation (lipid peroxidation) (Human LDL [2]; listed as pyridoxamine) | time course of Cu++-mediated oxidation of LDL (Human LDL [3]) | lipid-lowering effects [4] | IC50 [5] | effect on superoxide production [6] |
| --- | --- | --- | --- | --- | --- | --- | --- |
| CCOC(=O)[C@H](CCc1ccccc1)N[C@@H](C)C(=O)N1[C@H](C(=O)O)C[C@@H]2CCC[C@@H]21 [ramipril] | attenuated |  |  |  |  |  |  |
| Cc1ncc(CO)c(CN)c1O [PM, pyridoxamine, reference compound] |  | no effect | minimal effects | no effect | lipid-lowering effects |  |  |
| N=C(N)NN [AG, aminoguanidine, reference compound] | attenuated |  |  |  | lipid-lowering effects | 2750 µM | little or no effect |

Source: patent US7652037B2, “Methods of lowering lipid levels in a mammal” (City Of Hope, priority 2003, dated 2010)
